Data on one compound can be found in publication PMC11875992 (Cancer research, 2025).

One test has as its target KRAS G13D (Homo sapiens, UniProt P01116, G13D). Description: cellular thermal stability assay in HCT-116 lysates, western blot. The class given is biochemical. (A western blot detects proteins with antibodies after separation by electrophoresis.)
For the next test, the target named is KRAS G12C (Homo sapiens, UniProt P01116, G12C). Description: cellular thermal stability assay. The class given is cell-based.
Sequence of KRAS G12C (P01116 2-186 G12C): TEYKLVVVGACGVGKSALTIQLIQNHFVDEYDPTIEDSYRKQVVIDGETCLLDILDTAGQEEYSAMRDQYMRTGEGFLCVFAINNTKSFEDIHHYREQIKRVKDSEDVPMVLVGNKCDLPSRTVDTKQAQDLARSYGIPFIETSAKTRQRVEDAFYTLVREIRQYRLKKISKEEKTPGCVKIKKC

Sequence of KRAS G13D (P01116 2-186 G13D): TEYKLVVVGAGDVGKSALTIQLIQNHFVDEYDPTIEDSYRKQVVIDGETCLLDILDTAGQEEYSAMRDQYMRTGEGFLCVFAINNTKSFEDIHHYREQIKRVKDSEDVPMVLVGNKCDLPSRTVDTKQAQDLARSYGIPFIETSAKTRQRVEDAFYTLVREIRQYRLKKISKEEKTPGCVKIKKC

In the case of `COc1cc(/C=C2/C(C)=C(CC(=O)NCc3ccco3)c3cc(F)ccc32)cc(OC)c1O` [ADT-007, (Z)-2-(5-fluoro-1-(4-hydroxy-3,5-dimethoxybenzylidene)-2-methyl-1H-inden-3-yl)-N-(furan-2-ylmethyl)acetamide], the EC50 – broadly, the concentration needed to bring the measured effect to its halfway point – at KRAS G13D stood at 0.45 nM; on KRAS G12C, 8.49 nM.
